Assay results as given in the supplement of paper PMC10307832.

Key:
Assay in all cases: relative viability (nuclei count vs DMSO), 5 days (fraction); higher = more cells survive
HCC-15 = tested on: HCC-15
How it was run: (§1)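 Lung cancer cell lines were seeded in 1536-well plates and dosed by pin tool the next day, with either a single drug or a fixed anchor-drug dose combined with five library-drug doses (not always all listed) spaced in √10 steps. Five days later, one step fixed the cells and stained their nuclei (final 0.05% Triton X-100, 1% formaldehyde, 1 ug/ml Hoechst), and nuclei were counted on 4× images. Relative viability is the nuclei count in treated wells divided by the count in vehicle wells, and each value is the median of duplicate plates.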

NCI-H2170 = tested on: NCI-H2170
How it was run: as §1

NCI-H1734 = tested on: NCI-H1734
How it was run: as §1

EPLC-272H = tested on: EPLC-272H
How it was run: as §1

NCI-H441 = tested on: NCI-H441
How it was run: as §1

NCI-H647 = tested on: NCI-H647
How it was run: as §1

NCI-H2023 = tested on: NCI-H2023
How it was run: as §1

NCI-H1563 = tested on: NCI-H1563
How it was run: as §1

LOU-NH91 = tested on: LOU-NH91
How it was run: as §1

NCI-H3122 = tested on: NCI-H3122
How it was run: as §1

NCI-H520 = tested on: NCI-H520
How it was run: as §1

UMC-11 = tested on: UMC-11
How it was run: as §1

NCI-H1793 = tested on: NCI-H1793
How it was run: as §1

NCI-H322M = tested on: NCI-H322M
How it was run: as §1

NCI-H2405 = tested on: NCI-H2405
How it was run: as §1

NCI-H1650 = tested on: NCI-H1650
How it was run: as §1

PC-14 = tested on: PC-14
How it was run: as §1

H3255 = tested on: H3255
How it was run: as §1

SW 900 = tested on: SW 900
How it was run: as §1

NCI-H2347 = tested on: NCI-H2347
How it was run: as §1

201T = tested on: 201T
How it was run: as §1

COR-L23 = tested on: COR-L23
How it was run: as §1

## COc1cc2nccc(Oc3ccc(NC(=O)Nc4cc(C)on4)c(Cl)c3)c2cc1OC [Tivozanib] + Cc1nc(Nc2ncc(C(=O)Nc3c(C)cccc3Cl)s2)cc(N2CCN(CCO)CC2)n1 [Dasatinib] (partner 0.075 µM)
HCC-15; first compound 0.005 µM
  relative viability: 0.534
HCC-15; first compound 0.01581 µM
  relative viability: 0.579
HCC-15; first compound 0.05 µM
  relative viability: 0.621
HCC-15; first compound 0.1581 µM
  relative viability: 0.67
HCC-15; first compound 0.5 µM
  relative viability: 0.607
NCI-H2170; first compound 0.005 µM
  relative viability: 0.599
NCI-H2170; first compound 0.01581 µM
  relative viability: 0.494
NCI-H2170; first compound 0.05 µM
  relative viability: 0.616
NCI-H2170; first compound 0.1581 µM
  relative viability: 0.348
NCI-H2170; first compound 0.5 µM
  relative viability: 0.569
NCI-H1734; first compound 0.005 µM
  relative viability: 0.424
NCI-H1734; first compound 0.01581 µM
  relative viability: 0.536
NCI-H1734; first compound 0.05 µM
  relative viability: 0.51
NCI-H1734; first compound 0.1581 µM
  relative viability: 0.366
NCI-H1734; first compound 0.5 µM
  relative viability: 0.425
EPLC-272H; first compound 0.005 µM
  relative viability: 0.378
EPLC-272H; first compound 0.01581 µM
  relative viability: 0.375
EPLC-272H; first compound 0.05 µM
  relative viability: 0.447
EPLC-272H; first compound 0.1581 µM
  relative viability: 0.263
EPLC-272H; first compound 0.5 µM
  relative viability: 0.413
NCI-H441; first compound 0.005 µM
  relative viability: 0.642
NCI-H441; first compound 0.01581 µM
  relative viability: 0.584
NCI-H441; first compound 0.05 µM
  relative viability: 0.498
NCI-H441; first compound 0.1581 µM
  relative viability: 0.625
NCI-H441; first compound 0.5 µM
  relative viability: 0.394
NCI-H647; first compound 0.005 µM
  relative viability: 0.152
NCI-H647; first compound 0.01581 µM
  relative viability: 0.227
NCI-H647; first compound 0.05 µM
  relative viability: 0.189
NCI-H647; first compound 0.1581 µM
  relative viability: 0.193
NCI-H647; first compound 0.5 µM
  relative viability: 0.15
NCI-H2023; first compound 0.005 µM
  relative viability: 0.515
NCI-H2023; first compound 0.01581 µM
  relative viability: 0.577
NCI-H2023; first compound 0.05 µM
  relative viability: 0.55
NCI-H2023; first compound 0.1581 µM
  relative viability: 0.561
NCI-H2023; first compound 0.5 µM
  relative viability: 0.523
NCI-H1563; first compound 0.005 µM
  relative viability: 0.455
NCI-H1563; first compound 0.01581 µM
  relative viability: 0.463
NCI-H1563; first compound 0.05 µM
  relative viability: 0.466
NCI-H1563; first compound 0.1581 µM
  relative viability: 0.441
NCI-H1563; first compound 0.5 µM
  relative viability: 0.488
LOU-NH91; first compound 0.005 µM
  relative viability: 0.514
LOU-NH91; first compound 0.01581 µM
  relative viability: 0.569
LOU-NH91; first compound 0.05 µM
  relative viability: 0.595
LOU-NH91; first compound 0.1581 µM
  relative viability: 0.518
LOU-NH91; first compound 0.5 µM
  relative viability: 0.525
NCI-H3122; first compound 0.005 µM
  relative viability: 0.986
NCI-H3122; first compound 0.01581 µM
  relative viability: 0.821
NCI-H3122; first compound 0.05 µM
  relative viability: 0.754
NCI-H3122; first compound 0.1581 µM
  relative viability: 0.604
NCI-H3122; first compound 0.5 µM
  relative viability: 0.887
NCI-H520; first compound 0.005 µM
  relative viability: 0.183
NCI-H520; first compound 0.01581 µM
  relative viability: 0.201
NCI-H520; first compound 0.05 µM
  relative viability: 0.232
NCI-H520; first compound 0.1581 µM
  relative viability: 0.175
NCI-H520; first compound 0.5 µM
  relative viability: 0.182
UMC-11; first compound 0.005 µM
  relative viability: 0.416
UMC-11; first compound 0.01581 µM
  relative viability: 0.46
UMC-11; first compound 0.05 µM
  relative viability: 0.465
UMC-11; first compound 0.5 µM
  relative viability: 0.38
NCI-H1793; first compound 0.005 µM
  relative viability: 0.351
NCI-H1793; first compound 0.01581 µM
  relative viability: 0.355
NCI-H1793; first compound 0.05 µM
  relative viability: 0.388
NCI-H1793; first compound 0.1581 µM
  relative viability: 0.204
NCI-H1793; first compound 0.5 µM
  relative viability: 0.428
NCI-H322M; first compound 0.005 µM
  relative viability: 0.26
NCI-H322M; first compound 0.01581 µM
  relative viability: 0.241
NCI-H322M; first compound 0.05 µM
  relative viability: 0.272
NCI-H322M; first compound 0.1581 µM
  relative viability: 0.249
NCI-H322M; first compound 0.5 µM
  relative viability: 0.254
NCI-H2405; first compound 0.005 µM
  relative viability: 0.216
NCI-H2405; first compound 0.01581 µM
  relative viability: 0.242
NCI-H2405; first compound 0.05 µM
  relative viability: 0.202
NCI-H2405; first compound 0.1581 µM
  relative viability: 0.266
NCI-H2405; first compound 0.5 µM
  relative viability: 0.19
NCI-H1650; first compound 0.005 µM
  relative viability: 0.309
NCI-H1650; first compound 0.01581 µM
  relative viability: 0.361
NCI-H1650; first compound 0.05 µM
  relative viability: 0.346
NCI-H1650; first compound 0.1581 µM
  relative viability: 0.27
NCI-H1650; first compound 0.5 µM
  relative viability: 0.267
PC-14; first compound 0.005 µM
  relative viability: 0.224
PC-14; first compound 0.01581 µM
  relative viability: 0.25
PC-14; first compound 0.05 µM
  relative viability: 0.255
PC-14; first compound 0.1581 µM
  relative viability: 0.316
PC-14; first compound 0.5 µM
  relative viability: 0.239
H3255; first compound 0.005 µM
  relative viability: 0.316
H3255; first compound 0.01581 µM
  relative viability: 0.432
H3255; first compound 0.05 µM
  relative viability: 0.347
H3255; first compound 0.1581 µM
  relative viability: 0.345
H3255; first compound 0.5 µM
  relative viability: 0.326
SW 900; first compound 0.005 µM
  relative viability: 0.566
SW 900; first compound 0.01581 µM
  relative viability: 0.53
SW 900; first compound 0.05 µM
  relative viability: 0.67
SW 900; first compound 0.1581 µM
  relative viability: 0.426
SW 900; first compound 0.5 µM
  relative viability: 0.45
NCI-H2347; first compound 0.01581 µM
  relative viability: 0.308
NCI-H2347; first compound 0.05 µM
  relative viability: 0.294
NCI-H2347; first compound 0.5 µM
  relative viability: 0.281
201T; first compound 0.005 µM
  relative viability: 0.536
201T; first compound 0.01581 µM
  relative viability: 0.566
201T; first compound 0.05 µM
  relative viability: 0.6
201T; first compound 0.1581 µM
  relative viability: 0.57
201T; first compound 0.5 µM
  relative viability: 0.553
COR-L23; first compound 0.005 µM
  relative viability: 0.484
COR-L23; first compound 0.01581 µM
  relative viability: 0.515
COR-L23; first compound 0.05 µM
  relative viability: 0.462
COR-L23; first compound 0.1581 µM
  relative viability: 0.485
COR-L23; first compound 0.5 µM
  relative viability: 0.452
